Target: T1, Full-length glucokinase (beta cell isoform) (Homo sapiens, UniProt P35557)
T1 construct: Full-length glucokinase (beta cell isoform) was His-tagged at N-terminus; His tag (N); made in house
T1 sequence (P35557 1-465): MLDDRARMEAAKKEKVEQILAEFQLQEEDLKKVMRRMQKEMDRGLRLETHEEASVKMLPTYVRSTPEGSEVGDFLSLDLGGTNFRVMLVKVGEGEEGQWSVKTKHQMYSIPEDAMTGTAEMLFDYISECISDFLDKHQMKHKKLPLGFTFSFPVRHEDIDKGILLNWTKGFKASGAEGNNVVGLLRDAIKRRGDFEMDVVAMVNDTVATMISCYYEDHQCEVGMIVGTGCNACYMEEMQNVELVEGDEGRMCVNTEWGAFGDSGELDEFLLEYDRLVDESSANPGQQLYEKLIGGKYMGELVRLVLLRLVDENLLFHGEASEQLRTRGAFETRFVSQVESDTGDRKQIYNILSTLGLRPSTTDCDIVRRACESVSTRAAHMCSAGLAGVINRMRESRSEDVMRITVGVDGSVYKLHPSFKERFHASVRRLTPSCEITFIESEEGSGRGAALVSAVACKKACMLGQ
Experiment: Glucokinase biochemical assay (PK/LDH-coupled, NADH depletion at 340 nm): % activation, EC50, % max activation
Settings: 5 mM glucose; for activation at 10 µM: 10 uM compound, % Activation=(Va/Vo−1)×100, read-out: % Activation at 10 uM; for EC50: GK activation, read-out: EC50; for Emax: fitted maximum activation, read-out: % Max Activation
In short: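 N-terminally His-tagged full-length human beta-cell glucokinase, room temperature, 5 mM glucose, 1 mM ATP, PK/LDH-coupled with 0.7 mM NADH, 1% DMSO final. Initial velocity from the 200–900 s slope of A340 decline. % activation = (Va/Vo−1)×100, measured across compound concentrations.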

**Q.** Which activation at 10 µM does the source give for `Cn1ncc(NC(=O)c2cc(Oc3ccc(S(C)(=O)=O)c(F)c3)c3c(c2)OC(C)(C)C3)n1` [Example 117, 4-(3-Fluoro-4-methanesulfonyl-phenoxy)-2,2-dimethyl-2,3-dihydro-benzofuran-6-carboxylic acid (2-methyl-2H-[1,2,3]triazol-4-yl)-amide] here?
**A.** 325%

**Q.** What about the EC50 of the same molecule?
**A.** 0.15 µM

**Q.** What about the Emax of the same molecule?
**A.** 283%

**Q.** What does the source list for `Cn1ncc(NC(=O)c2cc(Oc3ccc(S(C)(=O)=O)c(Cl)c3)c3c(c2)OC(C)(C)C3)n1` [Example 118, 4-(3-Chloro-4-methanesulfonyl-phenoxy)-2,2-dimethyl-2,3-dihydro-benzofuran-6-carboxylic acid (2-methyl-2H-[1,2,3]triazol-4-yl)-amide]?
**A.** activation at 10 µM: 244%; EC50: 0.32 µM; Emax: 251%

**Q.** Which activation at 10 µM does the source give for `Cn1ncc(NC(=O)c2cc(Oc3ccc(S(C)(=O)=O)cc3Cl)c3c(c2)OC(C)(C)C3)n1` [Example 119, 4-(2-Chloro-4-methanesulfonyl-phenoxy)-2,2-dimethyl-2,3-dihydro-benzofuran-6-carboxylic acid (2-methyl-2H-[1,2,3]triazol-4-yl)-amide] here?
**A.** 242%

**Q.** What about the EC50 of the same molecule?
**A.** 0.43 µM

**Q.** What about the Emax of the same molecule?
**A.** 223%

**Q.** Which results are given for `Cc1ccc(NC(=O)c2cc(Oc3ccc(S(C)(=O)=O)cc3F)c3c(c2)OC(C)(C)C3)nc1` [Example 120, 4-(2-Fluoro-4-methanesulfonyl-phenoxy)-2,2-dimethyl-2,3-dihydro-benzofuran-6-carboxylic acid (5-methyl-pyridin-2-yl)-amide]?
**A.** activation at 10 µM: 80.5%; EC50: 0.2 µM; Emax: 79%

**Q.** Which activation at 10 µM does the source give for `Cn1ccc(NC(=O)c2cc(Oc3ccc(S(C)(=O)=O)cc3F)c3c(c2)OC(C)(C)C3)n1` [Example 121, 4-(2-Fluoro-4-methanesulfonyl-phenoxy)-2,2-dimethyl-2,3-dihydro-benzofuran-6-carboxylic acid (1-methyl-1H-pyrazol-3-yl)-amide] here?
**A.** 124%

**Q.** And the EC50?
**A.** 0.5 µM

**Q.** And the Emax?
**A.** 152%

**Q.** With `CN(C)S(=O)(=O)c1ccc(Oc2cc(C(=O)Nc3ccn(C)n3)cc3c2CC(C)(C)O3)cc1` [Example 122, 4-(4-Dimethylsulfamoyl-phenoxy)-2,2-dimethyl-2,3-dihydro-benzofuran-6-carboxylic acid (1-methyl-1H-pyrazol-3-yl)-amide] as the molecule, how does the activation at 10 µM read?
**A.** 184%

**Q.** What about the EC50 of the same molecule?
**A.** 0.1 µM

**Q.** What about the Emax of the same molecule?
**A.** 159%

**Q.** What does the source list for `Cn1ccc(NC(=O)c2cc(Oc3ccc(S(=O)(=O)C4CCC4)cc3)c3c(c2)OC(C)(C)C3)n1` [Example 123, 4-(4-Cyclobutanesulfonyl-phenoxy)-2,2-dimethyl-2,3-dihydro-benzofuran-6-carboxylic acid (1-methyl-1H-pyrazol-3-yl)-amide]?
**A.** activation at 10 µM: 189%; EC50: 0.055 µM; Emax: 150%

**Q.** How did the activation at 10 µM turn out when `Cc1ccc(NC(=O)c2cc(Oc3ccc(S(=O)(=O)N4CCC4)cc3)c3c(c2)OC(C)(C)C3)nc1` [Example 124, 4-[4-(Azetidine-1-sulfonyl)-phenoxy]-2,2-dimethyl-2,3-dihydro-benzofuran-6-carboxylic acid (5-methyl-pyridin-2-yl)-amide] was run?
**A.** 156%

**Q.** And the EC50?
**A.** 0.038 µM

**Q.** And the Emax?
**A.** 113%

**Q.** Which activation at 10 µM does the source give for `Cn1ccc(NC(=O)c2cc(Oc3ccc(S(=O)(=O)N4CCC4)cc3)c3c(c2)OC(C)(C)C3)n1` [Example 125, 4-[4-(Azetidine-1-sulfonyl)-phenoxy]-2,2-dimethyl-2,3-dihydro-benzofuran-6-carboxylic acid (1-methyl-1H-pyrazol-3-yl)-amide] here?
**A.** 181%

**Q.** What about the EC50 of the same molecule?
**A.** 0.046 µM

**Q.** What about the Emax of the same molecule?
**A.** 162%

**Q.** What does the source list for `CCS(=O)(=O)c1ccc(Oc2cc(C(=O)Nc3ccc(C)cn3)cc3c2CC(C)(C)O3)cc1` [Example 126, 4-(4-Ethanesulfonyl-phenoxy)-2,2-dimethyl-2,3-dihydro-benzofuran-6-carboxylic acid (5-methyl-pyridin-2-yl)-amide]?
**A.** activation at 10 µM: 137%; EC50: 0.037 µM; Emax: 118%

**Q.** How did the activation at 10 µM turn out when `CCS(=O)(=O)c1ccc(Oc2cc(C(=O)Nc3ccn(C)n3)cc3c2CC(C)(C)O3)cc1` [Example 127, 4-(4-Ethanesulfonyl-phenoxy)-2,2-dimethyl-2,3-dihydro-benzofuran-6-carboxylic acid (1-methyl-1H-pyrazol-3-yl)-amide] was run?
**A.** 193%

**Q.** What about the EC50 of the same molecule?
**A.** 0.066 µM

**Q.** And the Emax?
**A.** 165%

**Q.** Which results are given for `Cc1ccc(NC(=O)c2cc(Oc3ccc(S(=O)(=O)N(C)C)cc3)c3c(c2)OC(C)(C)C3)nc1` [Example 128, 4-(4-Dimethylsulfamoyl-phenoxy)-2,2-dimethyl-2,3-dihydro-benzofuran-6-carboxylic acid (5-methyl-pyridin-2-yl)-amide]?
**A.** activation at 10 µM: 135%; EC50: 0.038 µM; Emax: 112%

**Q.** For `Cn1ccc(NC(=O)c2cc(Oc3ccc(S(=O)(=O)C4CC4)cc3)c3c(c2)OC(C)(C)C3)n1` [Example 129, 4-(4-Cyclopropanesulfonyl-phenoxy)-2,2-dimethyl-2,3-dihydro-benzofuran-6-carboxylic acid (1-methyl-1H-pyrazol-3-yl)-amide], which activation at 10 µM is on record?
**A.** 185%

**Q.** And the EC50?
**A.** 0.089 µM

**Q.** And the Emax?
**A.** 160%

**Q.** Which activation at 10 µM does the source give for `CN(C)S(=O)(=O)c1ccc(Oc2cc(C(=O)Nc3ccn(C)n3)cc3c2CC(C)(C)O3)cc1F` [Example 130, 4-(4-Dimethylsulfamoyl-3-fluoro-phenoxy)-2,2-dimethyl-2,3-dihydro-benzofuran-6-carboxylic acid (1-methyl-1H-pyrazol-3-yl)-amide] here?
**A.** 211%

**Q.** And the EC50?
**A.** 0.14 µM

**Q.** And the Emax?
**A.** 236%

**Q.** For `Cn1ncc(NC(=O)c2cc(Oc3ccc(S(=O)(=O)C4CC4)cc3)c3c(c2)OC(C)(C)C3)n1` [Example 131, 4-(4-Cyclopropanesulfonyl-phenoxy)-2,2-dimethyl-2,3-dihydro-benzofuran-6-carboxylic acid (2-methyl-2H-[1,2,3]triazol-4-yl)-amide], which activation at 10 µM is on record?
**A.** 292%

**Q.** And the EC50?
**A.** 0.21 µM

**Q.** And the Emax?
**A.** 272%

**Q.** Which activation at 10 µM does the source give for `CN(C)S(=O)(=O)c1ccc(Oc2cc(C(=O)Nc3cnn(C)n3)cc3c2CC(C)(C)O3)cc1F` [Example 132, 4-(4-Dimethylsulfamoyl-3-fluoro-phenoxy)-2,2-dimethyl-2,3-dihydro-benzofuran-6-carboxylic acid (2-methyl-2H-[1,2,3]triazol-4-yl)-amide] here?
**A.** 288%

**Q.** What about the EC50 of the same molecule?
**A.** 0.17 µM

**Q.** What about the Emax of the same molecule?
**A.** 280%

**Q.** How did the activation at 10 µM turn out when `CCS(=O)(=O)c1ccc(Oc2cc(C(=O)Nc3cnn(C)n3)cc3c2CC(C)(C)O3)cc1` [Example 133, 4-(4-Ethanesulfonyl-phenoxy)-2,2-dimethyl-2,3-dihydro-benzofuran-6-carboxylic acid (2-methyl-2H-[1,2,3]triazol-4-yl)-amide] was run?
**A.** 308%

**Q.** And the EC50?
**A.** 0.12 µM

**Q.** What about the Emax of the same molecule?
**A.** 293%

**Q.** How did the activation at 10 µM turn out when `CN(C)S(=O)(=O)c1ccc(Oc2cc(C(=O)Nc3cnn(C)n3)cc3c2CC(C)(C)O3)cc1` [Example 134, 4-(4-Dimethylsulfamoyl-phenoxy)-2,2-dimethyl-2,3-dihydro-benzofuran-6-carboxylic acid (2-methyl-2H-[1,2,3]triazol-4-yl)-amide] was run?
**A.** 300%

**Q.** What about the EC50 of the same molecule?
**A.** 0.19 µM

**Q.** And the Emax?
**A.** 271%

**Q.** Which results are given for `CCS(=O)(=O)c1ccc(Oc2cc(C(=O)Nc3cnn(C)n3)cc3c2CC(C)(C)O3)cc1F` [Example 135, 4-(4-Ethanesulfonyl-3-fluoro-phenoxy)-2,2-dimethyl-2,3-dihydro-benzofuran-6-carboxylic acid (2-methyl-2H-[1,2,3]triazol-4-yl)-amide]?
**A.** activation at 10 µM: 239%; EC50: 0.097 µM; Emax: 257%

**Q.** What does the source list for `CCS(=O)(=O)c1ccc(Oc2cc(C(=O)Nc3ccn(C)n3)cc3c2CC(C)(C)O3)cc1F` [Example 136, 4-(4-Ethanesulfonyl-3-fluoro-phenoxy)-2,2-dimethyl-2,3-dihydro-benzofuran-6-carboxylic acid (1-methyl-1H-pyrazol-3-yl)-amide]?
**A.** activation at 10 µM: 237%; EC50: 0.12 µM; Emax: 236%

**Q.** `Cn1ccc(NC(=O)c2cc(Oc3ccc(S(C)(=O)=O)cc3Cl)c3c(c2)OC(C)(C)C3)n1` [Example 137, 4-(2-Chloro-4-methanesulfonyl-phenoxy)-2,2-dimethyl-2,3-dihydro-benzofuran-6-carboxylic acid (1-methyl-1H-pyrazol-3-yl)-amide] was tested. Which activation at 10 µM did it give?
**A.** 212%

**Q.** And the EC50?
**A.** 0.27 µM

**Q.** What about the Emax of the same molecule?
**A.** 218%

**Q.** `CN(C)S(=O)(=O)c1cc(F)c(Oc2cc(C(=O)Nc3cnn(C)n3)cc3c2CC(C)(C)O3)cc1F` [Example 138, 4-(4-Dimethylsulfamoyl-2,5-difluoro-phenoxy)-2,2-dimethyl-2,3-dihydro-benzofuran-6-carboxylic acid (2-methyl-2H-[1,2,3]triazol-4-yl)-amide] was tested. Which activation at 10 µM did it give?
**A.** 218%

**Q.** What about the EC50 of the same molecule?
**A.** 0.34 µM

**Q.** What about the Emax of the same molecule?
**A.** 224%

**Q.** For `Cn1ccc(NC(=O)c2cc(Oc3ccc(S(C)(=O)=O)c(Cl)c3)c3c(c2)OC(C)(C)C3)n1` [Example 139, 4-(3-Chloro-4-methanesulfonyl-phenoxy)-2,2-dimethyl-2,3-dihydro-benzofuran-6-carboxylic acid (1-methyl-1H-pyrazol-3-yl)-amide], which activation at 10 µM is on record?
**A.** 242%

**Q.** What about the EC50 of the same molecule?
**A.** 0.55 µM

**Q.** And the Emax?
**A.** 254%

Reference: patent publication US8119624B2, “Fused phenyl amido heterocyclic compounds” (Pfizer Inc., priority 2006, dated 2012)
